In patent publication US12544370B2, “Methods for cancer therapy” (ASCENTAGE PHARMA (SUZHOU) CO., LTD., priority 2018, dated 2026):

Legend:
[1] = tested on: human CML xenograft model; assay: Subcutaneous tumors, human CML xenograft model; assay type: in vivo
[2] = tested on: patients with chronic phase (CP/CML-CP) or accelerated phase (AP/CML-AP) CML resistant to or intolerant of ≥2 prior TKIs or with BCR-ABL T315I; assay: Phase 1 trial in resistant CML, further safety (Example 2)
Source text: The eligible patients received continuous treatment until disease progression or unacceptable toxicity, consent withdrawal, or death. The primary efficacy endpoints were major cytogenetic response (MCyR) for CP and complete hematological response (CHR) for AP. MCyR includes partial cytogenetic response (PCyR) and complete cytogenetic response (CCyR). Blood samples were collected at various time points on Day 1-2 and Day 27-28 during cycle 1 for PK analyses.

[3] = tested on: TKI-resistant patients with chronic phase (CP) or accelerated phase (AP) CML; assay: Phase I study in TKI-resistant CML, efficacy (Example 1); assay type: in vivo, human; conditions: for CHR achieved: 2 mg to 60 mg, within 3 cycles; for CCyR achieved / MCyR achieved: evaluable ≥3 cycles; for MCyR achieved: 12 mg to 50 mg
Source text: The eligible patients received treatments until disease progression or intolerable toxicities. The primary efficacy endpoint in the CML AP and CP patients, was complete hematological response (CHR) and major cytogenetic response (MCyR) respectively, MCyR includes partial cytogenetic response (PCyR) and complete cytogenetic response (CCyR). Blood samples were collected at various time points on Day 1-2 and Day 27-28 during cycle 1 for PK analyses.

[4] = Example 2, Table 3, treatment related AE, treated population 101
[5] = Example 1, Table 2, T315I mutation
[6] = Example 1, Table 2, Without T315I mutation
[7] = FIG. 2A, CML-CP, 24 patients T315I−
[8] = FIG. 2A, CML-CP, 42 patients T315I+
[9] = FIG. 2A, CML-CP, total 66 patients
[10] = FIG. 3A, 30 mg, CML-CP, 7 patients T315I+
[11] = FIG. 3A, 30 mg, CML-CP, 7 patients T315I−
[12] = FIG. 3A, 30 mg, CML-CP, total 14 patients
[13] = FIG. 3B, 40 mg, CML-CP, 8 patients T315I−
[14] = FIG. 3B, 40 mg, CML-CP, 10 patients T315I+
[15] = FIG. 3B, 40 mg, CML-CP, total 18 patients
[16] = FIG. 3C, 50 mg, CML-CP, 4 patients T315I−
[17] = FIG. 3C, 50 mg, CML-CP, 8 patients T315I+
[18] = FIG. 3C, 50 mg, CML-CP, total 12 patients

Cc1ccc(C(=O)Nc2ccc(CN3CCN(C)CC3)c(C(F)(F)F)c2)cc1C#Cc1cnc2[nH]ncc2c1 [compound of formula (I-A), 3-(2-(1H-pyrazolo[3,4-b]pyridin-5-yl)ethynyl)-4-methyl-N-(4-((4-methylpiperazin-1-yl)methyl)-3-(trifluoromethyl)phenyl)-benzamide]
effect on subcutaneous tumors [1]: complete regression | death / CTCAE grade 5 events on study ([2]; Example 2): No death and no CTCAE grade 5 events | ALT elevation, Any Grade [2, 4]: 34 (33.7%) n(%) | ALT elevation, Grade 3, 4 [2, 4]: 2 (2.0%) n(%) | ALT elevation, SAE [2, 4]: 0 n(%) | AST elevation, Any Grade [2, 4]: 37 (36.6%) n(%) | AST elevation, Grade 3, 4 [2, 4]: 3 (3.0%) n(%) | AST elevation, SAE [2, 4]: 0 n(%) | Anemia, Any Grade [2, 4]: 25 (24.8%) n(%) | Anemia, Grade 3, 4 [2, 4]: 12 (11.9%) n(%) | Anemia, SAE [2, 4]: 2 (2.0%) n(%) | Bilirubin elevation, Any Grade [2, 4]: 34 (33.7%) n(%) | Bilirubin elevation, Grade 3, 4 [2, 4]: 1 (1.0%) n(%) | Bilirubin elevation, SAE [2, 4]: 0 n(%) | CPK elevation, Any Grade [2, 4]: 20 (19.8%) n(%) | CPK elevation, Grade 3, 4 [2, 4]: 2 (2.0%) n(%) | CPK elevation, SAE [2, 4]: 0 n(%) | GGT elevation, Any Grade [2, 4]: 24 (23.8%) n(%) | GGT elevation, Grade 3, 4 [2, 4]: 0 n(%) | GGT elevation, SAE [2, 4]: 0 n(%) | Hyperglycaemia, Grade 3, 4 [2, 4]: 0 n(%) | Hyperglycaemia, SAE [2, 4]: 0 n(%) | Hypertriglyceridaemia, Any grade [2, 4]: 55 (54.5%) n(%) | Hypertriglyceridaemia, Grade 3, 4 [2, 4]: 8 (7.9%) n(%) | Hypertriglyceridaemia, SAE [2, 4]: 0 n(%) | Hypocalcaemia, Any grade [2, 4]: 34 (33.7%) n(%) | Hypocalcaemia, Grade 3, 4 [2, 4]: 0 n(%) | Hypocalcaemia, SAE [2, 4]: 0 n(%) | Hypokalaemia, Any Grade [2, 4]: 20 (19.8%) n(%) | Hypokalaemia, Grade 3, 4 [2, 4]: 0 n(%) | Hypokalaemia, SAE [2, 4]: 0 n(%) | Hyponatraemia, Any Grade [2, 4]: 23 (22.8%) n(%) | Hyponatraemia, Grade 3, 4 [2, 4]: 0 n(%) | Hyponatraemia, SAE [2, 4]: 0 n(%) | Myalgia, Grade 3, 4 [2, 4]: 0 n(%) | Myalgia, SAE [2, 4]: 0 n(%) | Proteinuria, Any grade [2, 4]: 35 (34.7%) n(%) | Proteinuria, Grade 3, 4 [2, 4]: 5 (5.0%) n(%) | Proteinuria, SAE [2, 4]: 0 n(%) | Pyrexia, Any Grade [2, 4]: 18 (17.8%) n(%) | Pyrexia, Grade 3, 4 [2, 4]: 7 (6.9%) n(%) | Pyrexia, SAE [2, 4]: 1 (1.0%) n(%) | Rash, Any Grade [2, 4]: 15 (14.9%) n(%) | Rash, Grade 3, 4 [2, 4]: 2 (2.0%) n(%) | Rash, SAE [2, 4]: 0 n(%) | Skin mass, Any Grade [2, 4]: 10 (9.9%) n(%) | Skin mass, Grade 3, 4 [2, 4]: 1 (1.0%) n(%) | Skin mass, SAE [2, 4]: 0 n(%) | Skin pigmentation, Any Grade [2, 4]: 79 (78.2%) n(%) | Skin pigmentation, Grade 3, 4 [2, 4]: 0 n(%) | Skin pigmentation, SAE [2, 4]: 0 n(%) | Thrombocytopenia, Any grade [2, 4]: 76 (75.2%) n(%) | Thrombocytopenia, Grade 3, 4 [2, 4]: 50 (49.5%) n(%) | Thrombocytopenia, SAE [2, 4]: 6 (5.9%) n(%) | leukopenia, Grade 3, 4 [2, 4]: 20 (19.8%) n(%) | leukopenia, SAE [2, 4]: 0 n(%) | patients who experienced DLT ([2]; Example 2, 60 mg cohort): Two out of 3 | grade ¾ TRAE thrombocytopenia ([2]; Example 2, 101 patients): 49.5% | tolerability ([2]; Example 2, 101 patients): well-tolerated in all dose cohorts with an exception of 60 mg cohort | MTD ([2]; Example 2, QOD): 50 mg | patients who experienced ≥1 treatment related adverse events (TRAEs) ([2]; Example 2, all patients): 101 (100%) n (%) | activity by T315I mutation status at baseline ([3]; Example 1, Table 2): highly active in patients with or without T315I mutation at baseline | Complete cytogenetic response, responders/evaluable ([3]; Example 1, Table 2, All): 14/47 | Complete hematological response, responders/evaluable ([3]; Example 1, Table 2, All): 65/70 | Major cytogenetic response, responders/evaluable ([3]; Example 1, Table 2, All): 24/47 | Major molecular response, percent ([3]; Example 1, Table 2, All): (13%) | Major molecular response, responders/evaluable ([3]; Example 1, Table 2, All): 6/48 | Complete cytogenetic response, percent [3, 5]: (45%) | Complete cytogenetic response, responders/evaluable [3, 5]: 13/29 | Complete hematological response, percent [3, 5]: (89%) | Complete hematological response, responders/evaluable [3, 5]: 40/45 | Major cytogenetic response, percent [3, 5]: (59%) | Major cytogenetic response, responders/evaluable [3, 5]: 17/29 | Major molecular response, percent [3, 5]: (20%) | Major molecular response, responders/evaluable [3, 5]: 6/30 | Complete cytogenetic response, percent [3, 6]: (6%) | Complete cytogenetic response, responders/evaluable [3, 6]: 1/18 | Complete hematological response, percent [3, 6]: (100%) | Complete hematological response, responders/evaluable [3, 6]: 25/25 | Major cytogenetic response, percent [3, 6]: (39%) | Major cytogenetic response, responders/evaluable [3, 6]: 7/18 | Major molecular response, responders/evaluable [3, 6]: 0/18 | CHR achieved ([3]; Example 1, AP patients): 7 (58%) n (%) | CCyR achieved ([3]; Example 1, AP patients): 2 (25%) n (%) | MCyR achieved ([3]; Example 1, AP patients): 3 (38%) n (%) | MMR achieved ([3]; Example 1, CP patients): 6 (15%) n (%) | CHR achieved ([3]; Example 1, CP patients): 58 (100%) n (%) | CCyR achieved ([3]; Example 1, CP patients): 12 (31%) n (%) | MCyR achieved ([3]; Example 1, CP patients): 21 (54%) n (%) | patients who achieved MCyR or MMR at the end of cycle ([3]; Example 1, cycle number not given): More than 65% | CHR ([3]; FIG. 1A, CML-CP, 32 patients T315I−): 100% | CHR ([3]; FIG. 1A, CML-CP, 50 patients T315I+): 96% | CHR ([3]; FIG. 1A, CML-CP, total 82 patients): 98% | CHR ([3]; FIG. 1B, CML-AP, 3 patients T315I−): 100% | CHR ([3]; FIG. 1B, CML-AP, 11 patients T315I+): 82% | CHR ([3]; FIG. 1B, CML-AP, total 14 patients): 86% | CCyR [3, 7]: 17% | MCyR [3, 7]: 46% | PCyR [3, 7]: 29% | CCyR [3, 8]: 74% | MCyR [3, 8]: 78% | PCyR [3, 8]: 4% | CCyR [3, 9]: 53% | MCyR [3, 9]: 67% | PCyR [3, 9]: 14% | response rate (cytogenetic) ([3]; FIG. 2B, CML-AP, 3 patients T315I−): 0 | CCyR ([3]; FIG. 2B, CML-AP, 9 patients T315I+): 33% | MCyR ([3]; FIG. 2B, CML-AP, total 12 patients): 25% | CCyR [3, 10]: 57% | MCyR [3, 10]: 71% | PCyR [3, 10]: 14% | CCyR [3, 11]: 14% | MCyR [3, 11]: 28% | PCyR [3, 11]: 14% | CCyR [3, 12]: 36% | MCyR [3, 12]: 50% | PCyR [3, 12]: 14% | CCyR [3, 13]: 13% | MCyR [3, 13]: 50% | PCyR [3, 13]: 38% | CCyR [3, 14]: 60% | MCyR [3, 14]: 60% | CCyR [3, 15]: 38% | MCyR [3, 15]: 54% | PCyR [3, 15]: 16% | CCyR [3, 16]: 25% | MCyR [3, 16]: 50% | PCyR [3, 16]: 25% | CCyR [3, 17]: 75% | MCyR [3, 17]: 100% | PCyR [3, 17]: 25% | CCyR [3, 18]: 58% | MCyR [3, 18]: 83% | PCyR [3, 18]: 25% | MMR ([3]; FIG. 4A, CML-CP, 24 patients T315I−): 4% | MMR ([3]; FIG. 4A, CML-CP, 43 patients T315I+): 47% | MMR ([3]; FIG. 4A, CML-CP, total 67 patients): 31% | MMR ([3]; FIG. 4B, CML-AP, 3 patients T315I−): 0% | MMR ([3]; FIG. 4B, CML-AP, 9 patients T315I+): 11% | MMR ([3]; FIG. 4B, CML-AP, total 12 patients): 8%
